“Also recorded” adds a separate entry of the source.
Assays:
sham operated rat [1] = assay: Plasma biochemistry in sham operated rats (colorimetry, Cobas Integra); format: in vivo; conditions: sham rats treated vs sham operated rats
Method: (§1) 29 bile duct ligated rats and 17 sham operated rats were studied at the end of four weeks. The animals were randomised to receive a placebo (saline) or an alpha 2a antagonist (BRL 44408, Sigma, UK). The dose applied was 10 mgs/Kg by sub cutaneous injection: two doses were delivered 24 hours prior to study.
(§2) Plasma biochemistry was measured by colorimetry using a Cobas Integra. Alpha 2a adrenergic receptor (ADRA 2a) and Nuclear Factor κ B (NFκB) protein expression were assessed by western blotting. ADRA2a expression was determined by immunohistochemistry.
(§3) Data are shown as median (range) or mean±standard error (SEM). Two tailed unpaired t-test was used to define difference between the means of normally distributed data of equal variance. For data that was not equally distributed, a Mann-Whitney test was used. Comparison of multiple groups was by analysis of variance (ANOVA) with a Bonferroni correction for multiple comparison.

[2] = tested on: bile duct ligated (BDL) rat; assay: Brain water content in BDL rats; format: in vivo; conditions: vs untreated BDL
Text: (§4) These experiments utilised an established animal model of cirrhosis, the bile duct ligated (BDL) rat. BDL rats may be generated by methods known in the art. For example, male Sprague-Dawley rats (200-250 g) may be used for this procedure. Following anaesthetisation, a mid-line laparotamy may be performed, the bile duct exposed, triply ligated with 4.0 silk suture, and severed between the second and third ligature. The wound is then closed in layers with absorbable suture, and the animal allowed to recover in a quiet room before being returned to the animal storage facility.
as §1
The brain water content signifies the amount of brain swelling that occurs as a result of inflammation in the brain.

sham operated rat [3] = assay: Haemodynamics in sham operated rats treated with alpha 2a antagonist; format: in vivo
Method: as §1
(§5) Mean arterial pressure was measured via a transducer through the left carotid artery. Portal pressure readings were taken by direct puncture of portal vein and transducer. Portal vein and hepatic artery flow measurements were done with a transonic flow probe and meter. All measurements were done in triplicates and recorded in data collection sheets.
as §3

[4] = tested on: Nuclear Factor κ B (NFκB); assay: NFκB protein expression in liver tissue of BDL rats by western blotting; format: in vivo, rat; conditions: vs untreated BDL
Text: as §4, §1, §2
The protein expression was assessed by the western blotting technique. NFkB is an important regulator of cell signalling pathways including apoptosis and inflammation.

[5] = tested on: bile duct ligated (BDL) rat; assay: Plasma biochemistry in BDL rats (colorimetry, Cobas Integra); format: in vivo
Text: as §4, §1, §2, §3

[6] = tested on: bile duct ligated (BDL) rat; assay: Haemodynamics in bile duct ligated (BDL) rats treated with alpha 2a antagonist; format: in vivo; conditions: for mean arterial pressure (MAP): two doses 24 hours prior to study, vs placebo/untreated BDL; for hepatic arterial blood flow: vs BDL treated with saline, Transonic flow probe
Text: as §4, §1, §5, §3

Structure (SMILES): CC1c2ccccc2CN1CC1=NCCN1 (centres unmarked) [BRL 44408, 2-[(4,5-Dihydro-1H-imidazol-2-yl)methyl]-2,3-dihydro-1-methyl-1H-isoindole]
- plasma creatinine (sham operated rat [1]): no difference
- brain water content [2]: significantly decreased; also recorded: reduced
- mean arterial pressure (MAP) (sham operated rat [3]; sham operated rats, 10 mgs/Kg sub cutaneous, treated vs untreated sham): no difference
- hepatic arterial blood flow (sham operated rat [3]; sham operated rats, vs sham treated with saline): improvement
- portal pressure (sham operated rat [3]; sham rats treated vs saline): no difference
- intra hepatic resistance (sham operated rat [3]; sham rats treated vs sham rats): no difference
- NFkB protein expression in the liver tissue [4]: reduced
- liver specific alanine aminotransferase (ALT) ([5]; p=0.5): non significant increase
- plasma ammonia ([5]; vs untreated BDL): trend towards reduction; also recorded: reduced
- plasma aspartate aminotransaminase (AST) ([5]; vs untreated BDL): significant reduction; also recorded: reduced
- plasma lactate ([5]; vs untreated BDL): significant reduction
- plasma lactate ([5]; vs untreated BDL, listed as BRL): significantly reduced
- plasma creatinine ([5]; vs untreated BDL, marker for renal function): trend towards reduction; also recorded: improved; also recorded: reduced
- mean arterial pressure (MAP) ([6]; BDL rats, 10 mgs/Kg sub cutaneous): significantly improved; also recorded: increased
- mean arterial pressure (MAP) ([6]; BDL rats, 10 mgs/Kg sub cutaneous, listed as ADRA2a antagonist): significant increase
- portal pressure ([6]; BDL rats, 10 mgs/Kg sub cutaneous, two doses, treated group value (placebo 18.0±3.7), p<0.001): 11.4±3.4 mmHg
- cardiac output ([6]; BDL rats, heart rate x stroke volume from echocardiogram, vs untreated BDL): improved significantly
- intra hepatic resistance ([6]; BDL rats, post treatment value (untreated 1.1±0.2), p<0.05, portal pressure divided by hepatic blood flow): 0.5±0.1 mmHg/ml/min
- portal pressure ([6]; BDL rats, vs BDL rats treated with saline, change in words): significantly reduced; also recorded: lowered
- hepatic arterial blood flow ([6]; BDL rats): markedly increased
- hepatic arterial blood flow ([6]; BDL rats, listed as BRL44408): improved
- intra hepatic resistance ([6]; BDL rats, vs untreated BDL, change in words): significantly reduced; also recorded: lowered
- portal venous blood flow ([6]; treated group vs placebo): without significant change

— patent publication US20130237557A1, “TREATMENT” (UCL BUSINESS PLC, priority 2010, published 2013)
